According to ChEMBL document CHEMBL3132846 (Medchemcomm, 2014):

Assays:
A549 = experiment: Cytotoxicity against human A549 cells after 48 hrs by MTT assay; format: functional, cell-based; conditions: A549, 48 h
CCRF S-180 [1] = experiment: Antitumor activity against mouse S180 cells allografted in ICR mouse assessed as tumor growth inhibition at 200 mg/kg, ig qd administered for 6 days relative to vehicle-treated control; format: functional; conditions: CCRF S-180, po, 144 h, route intragastric, read-out: TGI
Mus musculus = experiment: Toxicity in ICR mouse allografted with mouse S180 cells assessed as body weight loss at 200 mg/kg, ig qd administered for 6 days relative to vehicle-treated control; format: organism-based, CCRF S-180; parameters: dose 200 mg/kg, route intragastric; conditions: in vivo, po, 144 h
[2] = Cytotoxicity against human SKBR3 cells after 48 hrs by MTT assay; format: functional, cell-based; conditions: SK-BR-3, 48 h
[3] = Cytotoxicity against human JeKo1 cells after 48 hrs by MTT assay; format: functional, cell-based; conditions: JeKo-1, 48 h
MCF7 = experiment: Cytotoxicity against human MCF7 cells after 48 hrs by MTT assay; format: functional, cell-based; conditions: MCF7, 48 h
HL-60 = experiment: Cytotoxicity against human HL60 cells after 48 hrs by MTT assay; format: functional, cell-based; conditions: HL-60, 48 h
SiHa = experiment: Cytotoxicity against human SiHa cells after 48 hrs by MTT assay; format: functional, cell-based
Ishikawa = experiment: Cytotoxicity against human Ishikawa cells after 48 hrs by MTT assay; format: functional, cell-based
HeLa = experiment: Cytotoxicity against human HeLa cells after 48 hrs by MTT assay; format: functional, cell-based
BeWo = experiment: Cytotoxicity against human Bewo cells after 48 hrs by MTT assay; format: functional, cell-based
[4] = Cytotoxicity against human Bel7402 cells after 48 hrs by MTT assay; format: functional, cell-based; conditions: Bel-7402, 48 h
[5] = Cytotoxicity against human NCI-460 cells after 48 hrs by MTT assay; format: functional, cell-based; conditions: NCI-460, 48 h
[6] = Cytotoxicity against human BGC823 cells after 48 hrs by MTT assay; format: functional, cell-based; conditions: BGC-823, 48 h
CCRF S-180 [7] = experiment: Antitumor activity against mouse S180 cells allografted in ICR mouse assessed as tumor growth inhibition at 30 mg/kg, ig qd administered for 6 days relative to vehicle-treated control; format: functional; conditions: CCRF S-180, po, 144 h, route intragastric, read-out: TGI
HUVEC [8] = experiment: Cytotoxicity against HUVEC assessed as mitochondrial metabolism after 48 hrs by MTT assay; format: cell-based, Homo sapiens; conditions: for IC50: Homo sapiens, HUVEC
HUVEC [9] = experiment: Antiangiogenic activity against HUVEC assessed as inhibition of cell migration at 10 ug/ml after 24 hrs by wound healing assay relative to control; format: functional; conditions: Homo sapiens
HUVEC [10] = experiment: Antiangiogenic activity against HUVEC assessed as inhibition of cell migration at 2.5 ug/ml after 24 hrs by wound healing assay relative to control; format: functional; conditions: Homo sapiens

Structure (SMILES) | IC50 (A549) | inhibition in vivo at 200 mg/kg (CCRF S-180 [1]) | Activity (Mus musculus) | IC50 [2] | IC50 [3] | IC50 (MCF7) | IC50 (HL-60) | IC50 (SiHa) | IC50 (Ishikawa) | IC50 (HeLa) | IC50 (BeWo) | IC50 [4] | IC50 [5] | IC50 [6] | inhibition in vivo at 30 mg/kg (CCRF S-180 [7]) | IC50 (HUVEC [8]) | inhibition at 10 µg/mL (HUVEC [9]) | inhibition at 2.5 µg/mL (HUVEC [10]) | Activity (HUVEC [8]; human, huvec)
COc1c(O)ccc(/C=N/NC(=O)Cc2cccc3c(=O)c4ccc(C)c(C)c4oc23)c1[N+](=O)[O-] | > 100 µM |  |  |  |  |  |  |  |  |  |  |  |  |  |  |  |  |  | 
CCOC(=O)Cc1cccc2c(=O)c3ccc(C)c(C)c3oc12 |  | 4.04% | 8.5% |  |  |  |  |  |  |  |  |  |  |  |  |  |  |  | 
CC(C)=CCC(=O)NNC(=O)Cc1cccc2c(=O)c3ccc(C)c(C)c3oc12 |  |  |  | > 10 µg/mL | > 10 µg/mL |  |  |  |  |  |  |  |  |  |  |  |  |  | 
Cc1ccc2c(=O)c3cccc(CC(=O)Nc4ccc([N+](=O)[O-])c(C(F)(F)F)c4)c3oc2c1C | > 100 µM |  |  |  |  | > 100 µM | 93.8 µM | 63.2 µM | > 100 µM | > 100 µM | > 100 µM |  |  |  |  |  |  |  | 
COc1cccc(/C=N/NC(=O)Cc2cccc3c(=O)c4ccc(C)c(C)c4oc23)c1 | 50.7 µM |  |  |  |  | > 100 µM | > 100 µM | > 100 µM | > 100 µM | > 100 µM | 84.9 µM | > 100 µM | > 100 µM | > 100 µM |  |  |  |  | 
Cc1ccc2c(=O)c3cccc(CC(=O)O)c3oc2c1C [VADIMEZAN] | > 100 µM |  |  |  |  | > 100 µM | > 100 µM | > 100 µM | > 100 µM | > 100 µM | > 100 µM | > 100 µM | > 100 µM | > 100 µM | 76.2% | > 20 µM |  |  | 
CCOC(=O)CNC(=O)Cc1cccc2c(=O)c3ccc(C)c(C)c3oc12 | 42.9 µM |  |  |  |  | 46.4 µM | > 100 µM | > 100 µM | 61.9 µM | > 100 µM | > 100 µM |  |  |  |  |  |  |  | 
Cc1ccc2c(=O)c3cccc(CC(=O)Nc4cccc(Cl)c4)c3oc2c1C | 10.8 µM | 22.4% | 10.7% |  |  | > 100 µM | 91.2 µM | 36.1 µM | > 100 µM | 25.4 µM | 66.5 µM |  |  |  |  | 11.1 µM | 58.2% | 32.6% | Dose-dependent effect
Cc1ccc2c(=O)c3cccc(CC(=O)Nc4ccc(F)c(Cl)c4)c3oc2c1C | 25.8 µM |  |  |  |  | > 100 µM | 76.1 µM | 32.4 µM | > 100 µM | 94.2 µM | > 100 µM |  |  |  |  |  |  |  | 
COc1ccc(/C=C\c2cc(OC)c(OC)c(OC)c2)cc1O [COMBRETASTATIN A4] |  |  |  |  |  | 25.5 µM | < 0.03 µM | > 100 µM | 20.1 µM | 14.8 µM | 12.7 µM |  |  |  |  |  |  |  | 
CCCNC(=O)Cc1cccc2c(=O)c3ccc(C)c(C)c3oc12 | 28.9 µM | 25.6% | 10.32% |  |  | > 100 µM | > 100 µM | 92 µM | > 100 µM | > 100 µM | > 100 µM | > 100 µM | > 100 µM | > 100 µM |  |  |  |  | 
COc1ccc(/C=N/NC(=O)Cc2cccc3c(=O)c4ccc(C)c(C)c4oc23)cc1O | 54.9 µM |  |  |  |  | > 100 µM | > 100 µM | > 100 µM | > 100 µM | > 100 µM | > 100 µM | > 100 µM | > 100 µM | > 100 µM |  |  |  |  | 
Cc1ccc2c(=O)c3cccc(CC(=O)Nc4ccccc4)c3oc2c1C | 77.6 µM | 18.4% | 10.2% |  |  | > 100 µM | 4.59 µM | > 100 µM | > 100 µM | > 100 µM | > 100 µM | > 100 µM | > 100 µM | > 100 µM |  | > 20 µM |  |  | 
C/C=C/CC(=O)NNC(=O)Cc1cccc2c(=O)c3ccc(C)c(C)c3oc12 |  |  |  | > 10 µg/mL | > 10 µg/mL |  |  |  |  |  |  |  |  |  |  |  |  |  | 
C#CCOC(=O)Cc1cccc2c(=O)c3ccc(C)c(C)c3oc12 | > 100 µM |  |  | > 10 µg/mL | > 10 µg/mL | > 100 µM | > 100 µM | > 100 µM | > 100 µM | > 100 µM | > 100 µM | > 100 µM | > 100 µM | 81.5 µM |  |  |  |  | 
